Entries after “also recorded” stand apart in the source; their conditions may differ. Like-named read-outs stand apart in the source and are kept apart here.

Data set [1] has as its system native EML4-ALK. On the set-up: method as in PMID 27780853. The following applies: compared with crizotinib, ceritinib, and alectinib; nonclinical studies; cited from earlier work.
On the set-up of data set [2]: method as in PMID 32816246. The following applies: eGFR 30 to < 90 mL/min/1.73 m^2; population PK analyses; cited from earlier work.
Data set [3] is described as follows: Plasma protein binding of brigatinib by rapid equilibrium dialysis (RED) of participants' plasma samples. The data set is classed as in vitro ADME, human. The conditions noted are these: human, plasma samples of dosed participants, averaged over 2, 8, 24 h postdose, read-out: overall mean (SD) fraction unbound (converted). Here is the method: (§1) Blood samples were collected at 2, 8, and 24 h after brigatinib administration to determine the plasma protein binding of brigatinib.
(§2) Free brigatinib in plasma samples was separated from protein-bound brigatinib by dialyzing the samples across a semipermeable dialysis membrane (8000-Da mass cutoff) using Thermo Scientific™ Single-Use RED (rapid equilibrium dialysis) Plates. For each RED dialysis unit, an aliquot (200 µL) of plasma was transferred into the donor chamber and an aliquot (350 µL) of warm (37 °C) phosphate buffered saline (PBS) was transferred into the receiver chamber of the dialysis unit. The RED devices were incubated at 37 °C with gentle shaking (250 rpm on a rotator shaker) for six hours. A 125-µL aliquot of plasma and 150-µL aliquot of PBS were removed from the dialysis unit and matrix-matched to a final composition of 50:50 (v:v) plasma:PBS, in Rain-X® treated 96-well plates. The matrix-matched samples were immediately frozen at − 80 °C. The protein binding assay and sample analysis were conducted at Charles River Laboratories, Inc. (Worcester, MA, USA). Samples were analyzed for brigatinib concentrations using liquid chromatography with tandem mass spectrometry (LC-MS/MS) methods that have been previously reported using a dual-range assay with a lower limit of quantitation of 0.100 ng/mL and an upper limit of quantitation of 500 ng/mL.
(§3) Individual participant plasma concentration-time profiles were analyzed via noncompartmental analysis methods using Phoenix WinNonlin (version 6.4) to estimate PK parameters. Plasma PK parameters calculated for brigatinib included maximum observed plasma concentration (Cmax); Tmax; area under the plasma concentration-time curve from time zero to the time of the last measurable concentration (AUC0 − last); AUC from time zero to infinity (AUC0−∞); terminal elimination half-life (t1/2); apparent oral clearance (CL/F); and apparent volume of distribution (V/F). The fraction of unbound brigatinib in plasma was determined using the following formula: % free (unbound) = [free brigatinib concentration measured in buffer after RED]/[total concentration measured in plasma] X 100. Unbound brigatinib plasma PK parameters (except unbound CL/F and V/F, which were calculated as total CL/F or total V/F divided by the overall mean fraction unbound) were calculated using the following formula: unbound PK parameter = (parameter based on total concentrations) x (individual participant’s overall mean fraction unbound value). Urinary PK parameters included the amount of brigatinib excreted from time zero to time t (Ae0 − t,), fraction of the dose excreted (%) from time zero to time t (Fe0 − t), and renal clearance (CLR).
For orientation: In equilibrium dialysis free small molecules cross a membrane that holds back macromolecules.

In data set [4] the test system is plasma protein. The description is as above. The data set is classed as in vitro ADME, human. Here is the method:
as §1, §2, §3

On the set-up of data set [5]: method as in earlier work. The following applies: cited from earlier work.
Data set [6] is described as follows: Safety assessment (adverse events, laboratory, ECG, vital signs) in the single-dose study. The data set is classed as in vivo, human. The following applies: single 90 mg dose. The procedure:
Adverse events were recorded throughout the study. Physical examinations were performed at screening and on days − 1 and 8; height, weight, and BMI were collected only at screening. Vital signs were recorded at screening; on day − 1; at 0.5, 1, 2, 3, 4, 6, 8, 12, 24, 36, 48, 60, 72, 96, 120, and 144 h after brigatinib administration; and on day 8. Electrocardiograms were conducted at screening, day − 1, before the brigatinib dose, 3 and 48 h after brigatinib, and on day 8. Clinical laboratory evaluations were performed at screening and on days − 1 and 8.
Descriptive statistics, including number of observations (n), arithmetic mean, standard deviation (SD), coefficient of variation (CV%), median, minimum, and maximum, were calculated for each time point for brigatinib plasma concentrations in each study group. Arithmetic mean; SD; CV%; median, minimum, and maximum values; and geometric mean and geometric CV% were calculated for all PK parameters except Tmax, which was reported as median (minimum, maximum). Statistical comparisons of brigatinib PK parameters (unbound) were made using a one-factor analysis of variance, and 90 % CIs for the geometric mean ratios (GMRs) were calculated for the comparison of Cmax, AUC0 − last, and AUC0−∞ between study groups. Descriptive statistics were used to present safety outcomes, including number and percentage of participants with adverse events.

The subject of data set [7] is ALK-positive non–small cell lung cancer (NSCLC). On the set-up: method as in PMID 31756496. The following applies: cited from earlier work.
Details of data set [8]: method as in PMID 30570839. The following applies: cited from earlier work.
Setting [9] is: NSCLC progressed on crizotinib, 180 mg qd with seven-day lead-in at 90 mg, median follow-up 24 months.
Setting [10] is: patients with baseline brain metastases.

Broadly, the fraction unbound is the share of the substance not bound to proteins or other matrix. `COc1cc(N2CCC(N3CCN(C)CC3)CC2)ccc1Nc1ncc(Cl)c(Nc2ccccc2P(C)(C)=O)n1` [brigatinib]: the “potency and selectivity as inhibitor of native EML4-ALK” value in data set [1] is “more potent and selective inhibitor of native EML4-ALK”. Moreover, the “effect of mild or moderate renal impairment on brigatinib exposure / PK” value in data set [2] is “not associated with clinically meaningful effects on brigatinib PK; also recorded: not found to impact brigatinib exposure”. The fraction unbound at 6 h in data set [3] (healthy volunteers with normal renal function) was 0.09. Besides, the unbound share (fraction unbound) at 6 h in data set [3] (patients with severe renal impairment) is 0.08. In addition, in data set [4] (mean fraction unbound at 2, 8, 24 h postdose, both renal function groups), the “concentration dependence of protein binding” value is given as “not concentration-dependent”. In addition, in data set [4] (severe renal impairment vs normal renal function), the “effect of severe renal impairment on brigatinib plasma protein binding” value is “no effect”. Moreover, in data set [5], the “administered dose recovered in feces” value is listed as 65%, the “administered dose recovered in urine” value is given as 25%, the “unchanged brigatinib as share of total radioactivity in feces” value was 41% and the “unchanged brigatinib as share of total radioactivity in urine” value is recorded as 86%. Moreover, in data set [6] (all participants), the “clinically significant laboratory values or electrocardiogram findings” value is listed as “no participant had clinically significant laboratory values or electrocardiogram findings”. Also, the adverse events entry in data set [6] (healthy volunteers with normal renal function (n = 8)) was “No healthy volunteers with normal renal function reported adverse events”. Also, the treatment-emergent adverse events result in data set [6] (patients with severe renal impairment (n = 8)) was “Two patients with severe renal impairment reported three treatment-emergent adverse events”. Besides, in data set [7] (setting [9]), the “independent review committee-assessed confirmed objective response rate (ORR)” value is recorded as 56% and the “median progression-free survival (PFS)” value is 16.7 months. In addition, in data set [7] (setting [10]), the “confirmed intracranial ORR” value is given as 67% and the “median intracranial PFS” value is listed as 18.4 months. In data set [8], the “effect of a high-fat meal on total exposure (AUC)” value is listed as “no effect”.

Source of the values: article PMC8426299, “Effect of severe renal impairment on the pharmacokinetics of brigatinib” (Investigational New Drugs, 2021).
